Data: PubChem BioAssay (NCI)
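Grown in 96-well plates, cells were treated for 48 hours with each compound at five concentrations. Insufficient inhibition: endpoint recorded as highest concentration tested. TGI denotes the concentration required for complete inhibition of growth.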

Key:
Assay in all cases: inhibition of tumour cell growth, NCI panel, 48 h
[1] = system: SNB-75 CNS
[2] = system: BT-549 breast
[3] = system: ACHN renal
[4] = system: HCT-15 colon
[5] = system: OVCAR-4 ovarian
[6] = system: COLO 205 colon
[7] = system: OVCAR-3 ovarian
[8] = system: RXF 393 renal
[9] = system: HS 578T breast
[10] = system: SK-MEL-5 melanoma
[11] = system: M14 melanoma
[12] = system: MCF7 breast
[13] = system: A498 renal
[14] = system: MALME-3M melanoma
[15] = system: SN12C renal
[16] = system: UACC-62 melanoma
[17] = system: TK-10 renal
[18] = system: SR leukemia
[19] = system: SNB-19 CNS
[20] = system: LOX IMVI melanoma
[21] = system: SK-MEL-28 melanoma
[22] = system: A549 NSCLC
[23] = system: HCC-2998 colon
[24] = system: HL-60(TB) leukemia
[25] = system: OVCAR-8 ovarian
[26] = system: KM12 colon
[27] = system: IGROV1 ovarian
[28] = system: CAKI-1 renal
[29] = system: MDA-MB-435
[30] = system: MDA-N
[31] = system: HT29 colon
[32] = system: NCI/ADR-RES ovarian
[33] = system: 786-0 renal
[34] = system: PC-3 prostate
[35] = system: OVCAR-5 ovarian
[36] = system: K-562 leukemia
[37] = system: CCRF-CEM leukemia
[38] = system: NCI-H226 lung
[39] = system: NCI-H522 lung
[40] = system: UACC-257 melanoma
[41] = system: SF-268 CNS
[42] = system: NCI-H23 lung
[43] = system: SF-295 CNS
[44] = system: HOP-62 NSCLC
[45] = system: SW-620 colon
[46] = system: T-47D breast
[47] = system: U251 CNS
[48] = system: HCT-116 colon
[49] = system: DU-145 prostate
[50] = system: NCI-H460 lung
[51] = system: SK-MEL-2 melanoma
[52] = system: SF-539 CNS
[53] = system: EKVX NSCLC
[54] = system: HOP-92 NSCLC
[55] = system: SK-OV-3 ovarian
[56] = system: MOLT-4 leukemia
[57] = system: MDA-MB-231 breast
[58] = system: UO-31 renal

O=C1Nc2ccccc2C1=Nc1ccc(S(=O)(=O)Nc2nccs2)cc1
TGI [1]: > 100 µM | TGI [2]: > 100 µM | TGI [3]: > 100 µM | TGI [4]: > 100 µM | TGI [5]: > 100 µM | TGI [6]: > 100 µM | TGI [7]: > 100 µM | TGI [8]: > 100 µM | TGI [9]: > 100 µM | TGI [10]: > 100 µM | TGI [11]: > 100 µM | TGI [12]: > 100 µM | TGI [13]: > 100 µM | TGI [14]: > 100 µM | TGI [15]: > 100 µM | TGI [16]: > 100 µM | TGI [17]: > 100 µM | TGI [18]: > 100 µM | TGI [19]: > 100 µM | TGI [20]: > 100 µM | TGI [21]: > 100 µM | TGI [22]: > 100 µM | TGI [23]: > 100 µM | TGI [24]: > 100 µM | TGI [25]: > 100 µM | TGI [26]: > 100 µM | TGI [27]: > 100 µM | TGI [28]: > 100 µM | TGI [29]: > 100 µM | TGI [30]: > 100 µM | TGI [31]: > 100 µM | TGI [32]: > 100 µM | TGI [33]: > 100 µM | TGI [34]: > 100 µM | TGI [35]: > 100 µM | TGI [36]: > 100 µM | TGI [37]: > 100 µM | TGI [38]: > 100 µM | TGI [39]: > 100 µM | TGI [40]: > 100 µM | TGI [41]: > 100 µM | TGI [42]: > 100 µM | TGI [43]: > 100 µM | TGI [44]: > 100 µM | TGI [45]: > 100 µM | TGI [46]: > 100 µM | TGI [47]: > 100 µM | TGI [48]: > 100 µM | TGI [49]: > 100 µM | TGI [50]: > 100 µM | TGI [51]: > 100 µM | TGI [52]: > 100 µM | TGI [53]: > 100 µM | TGI [54]: > 100 µM | TGI [55]: > 100 µM | TGI [56]: > 100 µM | TGI [57]: > 100 µM | TGI [58]: > 100 µM

COc1cc(S(=O)(=O)Nc2nc(-c3ccc(N=Cc4cccs4)cc3)cs2)ccc1Cl
TGI [1]: > 100 µM | TGI [2]: > 100 µM | TGI [3]: > 100 µM | TGI [4]: > 100 µM | TGI [5]: > 100 µM | TGI [6]: > 100 µM | TGI [7]: 78.6 µM | TGI [8]: 49.6 µM | TGI [9]: > 100 µM | TGI [10]: > 100 µM | TGI [11]: > 100 µM | TGI [12]: > 100 µM | TGI [13]: > 100 µM | TGI [14]: > 100 µM | TGI [15]: 64.1 µM | TGI [16]: 48.7 µM | TGI [17]: > 100 µM | TGI [18]: 57 µM | TGI [19]: > 100 µM | TGI [20]: > 100 µM | TGI [21]: > 100 µM | TGI [22]: > 100 µM | TGI [23]: > 100 µM | TGI [24]: > 100 µM | TGI [25]: > 100 µM | TGI [26]: > 100 µM | TGI [27]: > 100 µM | TGI [28]: > 100 µM | TGI [29]: > 100 µM | TGI [30]: > 100 µM | TGI [31]: > 100 µM | TGI [32]: > 100 µM | TGI [33]: > 100 µM | TGI [34]: > 100 µM | TGI [35]: > 100 µM | TGI [36]: > 100 µM | TGI [37]: > 100 µM | TGI [38]: > 100 µM | TGI [39]: > 100 µM | TGI [40]: > 100 µM | TGI [41]: > 100 µM | TGI [42]: > 100 µM | TGI [43]: > 100 µM | TGI [44]: > 100 µM | TGI [45]: > 100 µM | TGI [46]: > 100 µM | TGI [47]: > 100 µM | TGI [48]: > 100 µM | TGI [49]: > 100 µM | TGI [50]: > 100 µM | TGI [51]: > 100 µM | TGI [52]: > 100 µM | TGI [53]: > 100 µM | TGI [54]: > 100 µM | TGI [55]: > 100 µM | TGI [56]: 98.7 µM | TGI [57]: > 100 µM | TGI [58]: > 100 µM
